Each structure is given as a SMILES string. In brackets after ≈: the same amount, converted by molar mass. Bounds are passed on as bounds.

This is an account of results in ChEMBL document CHEMBL1671622, “Novel mutation in 23S rRNA that confers low-level resistance to clarithromycin in Helicobacter pylori” (2008).

Common to all, as to assay type: functional
Assay [1] deals with Helicobacter pylori. Put plainly: Antimicrobial activity against Helicobacter pylori.
For assay [2], the system named is Helicobacter pylori. Kind of assay: Antimicrobial activity against Helicobacter pylori TS1900.
The test system of assay [3] is Helicobacter pylori. Put plainly: Antimicrobial activity against Helicobacter pylori TS1776.
In assay [4] the test system is Helicobacter pylori. Put plainly: Antimicrobial activity against compound-resistant Helicobacter pylori harboring 23S rRNA mutant gene.
The test system of assay [5] is Helicobacter pylori. Kind of assay: Antimicrobial activity against clarithromycin-susceptible Helicobacter pylori ATCC 700392 transformant harboring 23S rRNA of Helicobacter pylori TS1900.
In assay [6] the test system is Helicobacter pylori. Kind of assay: Antimicrobial activity against Helicobacter pylori S1900.
Assay [7] concerns Helicobacter pylori. Put plainly: Antimicrobial activity against Helicobacter pylori TF1.
The subject of assay [8] is Helicobacter pylori. Put plainly: Antimicrobial activity against Helicobacter pylori TF2.
Assay [9] has as its system Helicobacter pylori. Put plainly: Antimicrobial activity against Helicobacter pylori TF3.
The test system of assay [10] is Helicobacter pylori. Kind of assay: Antimicrobial activity against Helicobacter pylori TF4.

Turning to `CC[C@H]1OC(=O)[C@H](C)[C@@H](O[C@H]2C[C@@](C)(OC)[C@@H](O)[C@H](C)O2)[C@H](C)[C@@H](O[C@@H]2O[C@H](C)C[C@H](N(C)C)[C@H]2O)[C@](C)(OC)C[C@@H](C)C(=O)[C@H](C)[C@@H](O)[C@]1(C)O` [CLARITHROMYCIN], the MIC – broadly, the smallest concentration in the dilution series that meets the test's criterion for growth inhibition – with Helicobacter pylori [1] is at least 0.125 µg/mL; in the assay on Helicobacter pylori [2] it was 1 µg/mL (≈ 1.34 µM); against Helicobacter pylori [3], 0.5 µg/mL (≈ 0.668 µM); against Helicobacter pylori [4] it was 2 µg/mL (≈ 2.67 µM); in the assay with Helicobacter pylori [5], at most 0.008 µg/mL; against Helicobacter pylori [6], 1 µg/mL (≈ 1.34 µM). The MIC with Helicobacter pylori [7] stood at 0.5 µg/mL (≈ 0.668 µM); in the assay with Helicobacter pylori [8], 0.25 µg/mL (≈ 0.334 µM); with Helicobacter pylori [9], 1 µg/mL (≈ 1.34 µM); with Helicobacter pylori [10] it was 1 µg/mL (≈ 1.34 µM).
